According to patent publication US12077503B2, “Substituted cyclic amides and their use as herbicides” (FMC CORPORATION, priority 2015, dated 2024):

Assays:
Assay type in all cases: in vivo
[1] = test system: ragweed (common ragweed, Ambrosia elatior); assay: Test A postemergence; conditions: Ambrosia artemisiifolia, post-emergence, 240 h, postemergence
In short: (§1)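 Seeded soil received test chemicals as a preemergence directed spray, and seedlings at one to two leaves, 2–10 cm tall, received them postemergence, in a non-phytotoxic, surfactant-containing solvent mixture. Pots were held in a greenhouse for approximately 10 d, then rated for injury from 0, no effect, to 100, complete control.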

[2] = test system: Galium (catchweed bedstraw, Galium aparine); assay: Test A postemergence; conditions: Galium, post-emergence, 240 h, postemergence
In short: as §1

[3] = test system: wheat (Triticum aestivum); assay: Test A postemergence; conditions: Triticum aestivum, post-emergence, 240 h, postemergence
In short: as §1

[4] = test system: corn (Zea mays); assay: Test A postemergence; conditions: Zea mays, post-emergence, 240 h, postemergence
In short: as §1

[5] = test system: blackgrass (Alopecurus myosuroides); assay: Test A postemergence; conditions: Alopecurus myosuroides, post-emergence, 240 h, postemergence
In short: as §1

[6] = test system: pigweed (Amaranthus retroflexus); assay: Test A postemergence; conditions: Amaranthus retroflexus, post-emergence, 240 h, postemergence
In short: as §1

[7] = test system: giant foxtail (Setaria faberii); assay: Test A postemergence; conditions: Setaria faberi, post-emergence, 240 h, postemergence
In short: as §1

[8] = test system: ryegrass, Italian (Italian ryegrass, Lolium multiflorum); assay: Test A postemergence; conditions: Lolium multiflorum, post-emergence, 240 h, postemergence
In short: as §1

[9] = test system: Kochia (Kochia scoparia); assay: Test A postemergence; conditions: Bassia scoparia, post-emergence, 240 h, postemergence
In short: as §1

[10] = test system: barnyardgrass (Echinochloa crus-galli); assay: Test A postemergence; conditions: Echinochloa crus-galli, post-emergence, 240 h, postemergence
In short: as §1

[11] = test system: ragweed (common ragweed, Ambrosia elatior); assay: Test A preemergence; conditions: Ambrosia artemisiifolia, pre-emergence, 240 h, preemergence, 0 to 100 scale where 0 is no effect and 100 is complete control, read-out: Ragweed plant response rating
In short: as §1

[12] = test system: pigweed (Amaranthus retroflexus); assay: Test A preemergence; conditions: Amaranthus retroflexus, pre-emergence, 240 h, preemergence, 0 to 100 scale where 0 is no effect and 100 is complete control, read-out: Pigweed plant response rating
[13] = test system: giant foxtail (Setaria faberii); assay: Test A preemergence; conditions: Setaria faberi, pre-emergence, 240 h, preemergence, 0 to 100 scale where 0 is no effect and 100 is complete control, read-out: Foxtail, Giant plant response rating
In short: as §1

[14] = test system: ryegrass, Italian (Italian ryegrass, Lolium multiflorum); assay: Test A preemergence; conditions: Lolium multiflorum, pre-emergence, 240 h, preemergence, 0 to 100 scale where 0 is no effect and 100 is complete control, read-out: Ryegrass, Italian plant response rating
In short: as §1

[15] = test system: Kochia (Kochia scoparia); assay: Test A preemergence; conditions: Bassia scoparia, pre-emergence, 240 h, preemergence, 0 to 100 scale where 0 is no effect and 100 is complete control, read-out: Kochia plant response rating
In short: as §1

[16] = test system: barnyardgrass (Echinochloa crus-galli); assay: Test A preemergence; conditions: Echinochloa crus-galli, pre-emergence, 240 h, preemergence, 0 to 100 scale where 0 is no effect and 100 is complete control, read-out: Barnyardgrass plant response rating
In short: as §1

[17] = 125 g ai/ha, visual injury rating, approximately 10 d

CSc1ccccc1NC(=O)[C@H]1C(=O)N(C)C[C@@H]1c1ccc(C#N)cc1 [Compound 1230]
90%: pest or weed control at 500 g/ha ([13]; 500 g ai/ha) | pest or weed control at 500 g/ha ([15]; 500 g ai/ha)
40%: pest or weed control at 125 g/ha [13, 17]
30%: pest or weed control at 125 g/ha ([6]; 125 g ai/ha, visual injury vs untreated controls after approx. 10 d, 0 = no effect, 100 = complete control, read-out: Pigweed plant response rating (0 to 100 scale)) | pest or weed control at 125 g/ha ([9]; 125 g ai/ha, visual injury vs untreated controls after approx. 10 d, 0 = no effect, 100 = complete control, read-out: Kochia plant response rating (0 to 100 scale)) | pest or weed control at 125 g/ha ([10]; 125 g ai/ha, visual injury vs untreated controls after approx. 10 d, 0 = no effect, 100 = complete control, read-out: Barnyardgrass plant response rating (0 to 100 scale)) | pest or weed control at 500 g/ha ([12]; 500 g ai/ha)
70%: pest or weed control at 500 g/ha ([9]; 500 g ai/ha, 0 to 100 scale, 0 is no effect, 100 is complete control, read-out: Kochia plant response rating) | pest or weed control at 500 g/ha ([10]; 500 g ai/ha, 0 to 100 scale, 0 is no effect, 100 is complete control, read-out: Barnyardgrass plant response rating) | pest or weed control at 125 g/ha [15, 17]
60%: pest or weed control at 500 g/ha ([2]; 500 g ai/ha, 0 to 100 scale, 0 is no effect, 100 is complete control, read-out: Galium plant response rating) | pest or weed control at 500 g/ha ([6]; 500 g ai/ha, 0 to 100 scale, 0 is no effect, 100 is complete control, read-out: Pigweed plant response rating) | pest or weed control at 125 g/ha ([7]; 125 g ai/ha, visual injury vs untreated controls after approx. 10 d, 0 = no effect, 100 = complete control, read-out: Foxtail, Giant plant response rating (0 to 100 scale))
20%: pest or weed control at 125 g/ha ([2]; 125 g ai/ha, visual injury vs untreated controls after approx. 10 d, 0 = no effect, 100 = complete control, read-out: Galium plant response rating (0 to 100 scale)) | pest or weed control at 125 g/ha [12, 17]
50%: pest or weed control at 500 g/ha ([16]; 500 g ai/ha)
80%: pest or weed control at 500 g/ha ([7]; 500 g ai/ha, 0 to 100 scale, 0 is no effect, 100 is complete control, read-out: Foxtail, Giant plant response rating)
0%: pest or weed control at 125 g/ha ([1]; 125 g ai/ha, visual injury vs untreated controls after approx. 10 d, 0 = no effect, 100 = complete control, read-out: Ragweed plant response rating (0 to 100 scale)) | pest or weed control at 500 g/ha ([1]; 500 g ai/ha, 0 to 100 scale, 0 is no effect, 100 is complete control, read-out: Ragweed plant response rating) | plant injury at 125 g/ha ([3]; 125 g ai/ha, visual injury vs untreated controls after approx. 10 d, 0 = no effect, 100 = complete control, read-out: Wheat plant response rating (0 to 100 scale)) | plant injury at 500 g/ha ([3]; 500 g ai/ha, 0 to 100 scale, 0 is no effect, 100 is complete control, read-out: Wheat plant response rating) | plant injury at 125 g/ha ([4]; 125 g ai/ha, visual injury vs untreated controls after approx. 10 d, 0 = no effect, 100 = complete control, read-out: Corn plant response rating (0 to 100 scale)) | plant injury at 500 g/ha ([4]; 500 g ai/ha, 0 to 100 scale, 0 is no effect, 100 is complete control, read-out: Corn plant response rating) | pest or weed control at 125 g/ha ([5]; 125 g ai/ha, visual injury vs untreated controls after approx. 10 d, 0 = no effect, 100 = complete control, read-out: Blackgrass plant response rating (0 to 100 scale)) | pest or weed control at 500 g/ha ([5]; 500 g ai/ha, 0 to 100 scale, 0 is no effect, 100 is complete control, read-out: Blackgrass plant response rating) | pest or weed control at 125 g/ha ([8]; 125 g ai/ha, visual injury vs untreated controls after approx. 10 d, 0 = no effect, 100 = complete control, read-out: Ryegrass, Italian plant response rating (0 to 100 scale)) | pest or weed control at 500 g/ha ([8]; 500 g ai/ha, 0 to 100 scale, 0 is no effect, 100 is complete control, read-out: Ryegrass, Italian plant response rating) | pest or weed control at 125 g/ha [11, 17] | pest or weed control at 500 g/ha ([11]; 500 g ai/ha) | pest or weed control at 125 g/ha [14, 17] | pest or weed control at 500 g/ha ([14]; 500 g ai/ha) | pest or weed control at 125 g/ha [16, 17]
